The text below walks through data of patent US11878975B2, “Substituted indole compounds useful as TLR inhibitors” (BRISTOL-MYERS SQUIBB COMPANY, priority 2017, dated 2024).

Holding throughout (format): cell-based
For one assay, the target named is T1, human TLR9 (Homo sapiens, UniProt Q9NR96).
T1 construct: host or cells: HEK-Blue cells
T1 sequence (Q9NR96 26-1032): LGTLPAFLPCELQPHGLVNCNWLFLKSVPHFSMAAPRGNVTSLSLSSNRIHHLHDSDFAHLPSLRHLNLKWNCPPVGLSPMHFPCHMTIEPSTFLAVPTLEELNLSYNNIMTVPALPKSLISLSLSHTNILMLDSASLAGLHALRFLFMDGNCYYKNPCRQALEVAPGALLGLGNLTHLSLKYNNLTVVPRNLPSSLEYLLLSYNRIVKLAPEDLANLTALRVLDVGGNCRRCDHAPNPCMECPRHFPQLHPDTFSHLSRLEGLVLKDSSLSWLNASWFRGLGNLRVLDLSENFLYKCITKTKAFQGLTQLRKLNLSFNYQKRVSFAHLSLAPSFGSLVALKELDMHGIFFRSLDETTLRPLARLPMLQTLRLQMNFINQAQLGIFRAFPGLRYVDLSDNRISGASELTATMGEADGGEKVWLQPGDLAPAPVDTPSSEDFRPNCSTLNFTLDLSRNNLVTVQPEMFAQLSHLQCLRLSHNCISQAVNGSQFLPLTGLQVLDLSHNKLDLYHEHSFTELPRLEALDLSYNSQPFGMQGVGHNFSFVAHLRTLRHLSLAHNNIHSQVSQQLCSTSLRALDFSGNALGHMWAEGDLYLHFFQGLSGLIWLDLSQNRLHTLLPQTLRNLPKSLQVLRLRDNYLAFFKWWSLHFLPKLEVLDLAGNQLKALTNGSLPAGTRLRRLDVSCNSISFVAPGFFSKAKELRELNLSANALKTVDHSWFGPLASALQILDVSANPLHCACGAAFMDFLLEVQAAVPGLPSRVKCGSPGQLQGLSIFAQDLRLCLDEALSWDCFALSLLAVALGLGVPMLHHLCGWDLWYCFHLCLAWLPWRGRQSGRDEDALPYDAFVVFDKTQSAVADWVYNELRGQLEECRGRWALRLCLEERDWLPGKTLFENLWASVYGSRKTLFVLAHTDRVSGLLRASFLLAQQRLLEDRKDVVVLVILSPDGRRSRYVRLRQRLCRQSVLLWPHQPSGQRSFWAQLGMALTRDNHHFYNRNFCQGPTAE
The assay is described as follows: TLR9 inhibition reporter assay (HEK-Blue cells, SEAP reporter, ODN2006 stimulation). To be noted: HEK-Blue cells overexpressing human TLR9, SEAP reporter, ODN2006 5 nM. The essentials:
(§1)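 Ligand levels: TLR7 gardiquimod 7.5 μM, TLR8 R848 15.9 μM, TLR9 ODN2006 5 nM, added after 30 min room-temperature compound pre-incubation at 0.05 nM-50 μM. Reporter SEAP read with HEK-Blue Detection reagent after 22 h, 37° C. Inhibition expressed as % reduction relative to agonist-plus-DMSO and known-inhibitor controls.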
A general note: In a reporter assay the amount or activity of a reporter protein is the signal.

Another assay concerns the target T2, human TLR7 (Homo sapiens, UniProt Q9NYK1).
T2 construct: host or cells: HEK-Blue cells
T2 sequence (Q9NYK1 27-1049): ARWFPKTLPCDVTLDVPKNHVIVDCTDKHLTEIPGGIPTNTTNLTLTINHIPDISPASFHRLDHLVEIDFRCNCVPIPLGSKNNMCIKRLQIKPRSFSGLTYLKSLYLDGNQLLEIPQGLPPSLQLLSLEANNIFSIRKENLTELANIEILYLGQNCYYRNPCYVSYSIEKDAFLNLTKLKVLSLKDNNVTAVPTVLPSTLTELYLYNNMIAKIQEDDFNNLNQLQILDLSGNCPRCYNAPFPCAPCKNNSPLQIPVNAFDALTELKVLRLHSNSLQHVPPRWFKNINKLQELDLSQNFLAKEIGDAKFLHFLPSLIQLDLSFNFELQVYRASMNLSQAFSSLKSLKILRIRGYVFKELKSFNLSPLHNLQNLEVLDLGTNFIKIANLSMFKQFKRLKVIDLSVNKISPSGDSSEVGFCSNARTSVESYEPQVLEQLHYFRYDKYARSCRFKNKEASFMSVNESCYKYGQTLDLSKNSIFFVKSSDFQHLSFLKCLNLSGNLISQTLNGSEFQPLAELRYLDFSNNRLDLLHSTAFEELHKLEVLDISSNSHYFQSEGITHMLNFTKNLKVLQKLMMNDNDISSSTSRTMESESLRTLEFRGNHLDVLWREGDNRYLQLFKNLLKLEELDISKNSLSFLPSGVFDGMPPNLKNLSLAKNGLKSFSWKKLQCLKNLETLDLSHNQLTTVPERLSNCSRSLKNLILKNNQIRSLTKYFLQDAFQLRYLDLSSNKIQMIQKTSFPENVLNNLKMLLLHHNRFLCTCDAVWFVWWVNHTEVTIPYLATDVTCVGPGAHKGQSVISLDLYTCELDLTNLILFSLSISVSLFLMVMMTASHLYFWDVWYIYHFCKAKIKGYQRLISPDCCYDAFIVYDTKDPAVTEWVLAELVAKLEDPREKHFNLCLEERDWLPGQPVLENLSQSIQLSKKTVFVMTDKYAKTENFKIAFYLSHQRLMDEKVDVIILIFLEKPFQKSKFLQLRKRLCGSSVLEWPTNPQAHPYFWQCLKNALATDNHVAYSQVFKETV
In words: TLR7 inhibition reporter assay (HEK-Blue cells, SEAP reporter, gardiquimod stimulation). To be noted: HEK-Blue cells overexpressing human TLR7, SEAP reporter, gardiquimod 7.5 μM. The essentials:
as §1

For a further assay, the target named is T3, human TLR8 (Homo sapiens, UniProt Q9NR97).
T3 construct: host or cells: HEK-Blue cells
T3 sequence (Q9NR97 27-1041): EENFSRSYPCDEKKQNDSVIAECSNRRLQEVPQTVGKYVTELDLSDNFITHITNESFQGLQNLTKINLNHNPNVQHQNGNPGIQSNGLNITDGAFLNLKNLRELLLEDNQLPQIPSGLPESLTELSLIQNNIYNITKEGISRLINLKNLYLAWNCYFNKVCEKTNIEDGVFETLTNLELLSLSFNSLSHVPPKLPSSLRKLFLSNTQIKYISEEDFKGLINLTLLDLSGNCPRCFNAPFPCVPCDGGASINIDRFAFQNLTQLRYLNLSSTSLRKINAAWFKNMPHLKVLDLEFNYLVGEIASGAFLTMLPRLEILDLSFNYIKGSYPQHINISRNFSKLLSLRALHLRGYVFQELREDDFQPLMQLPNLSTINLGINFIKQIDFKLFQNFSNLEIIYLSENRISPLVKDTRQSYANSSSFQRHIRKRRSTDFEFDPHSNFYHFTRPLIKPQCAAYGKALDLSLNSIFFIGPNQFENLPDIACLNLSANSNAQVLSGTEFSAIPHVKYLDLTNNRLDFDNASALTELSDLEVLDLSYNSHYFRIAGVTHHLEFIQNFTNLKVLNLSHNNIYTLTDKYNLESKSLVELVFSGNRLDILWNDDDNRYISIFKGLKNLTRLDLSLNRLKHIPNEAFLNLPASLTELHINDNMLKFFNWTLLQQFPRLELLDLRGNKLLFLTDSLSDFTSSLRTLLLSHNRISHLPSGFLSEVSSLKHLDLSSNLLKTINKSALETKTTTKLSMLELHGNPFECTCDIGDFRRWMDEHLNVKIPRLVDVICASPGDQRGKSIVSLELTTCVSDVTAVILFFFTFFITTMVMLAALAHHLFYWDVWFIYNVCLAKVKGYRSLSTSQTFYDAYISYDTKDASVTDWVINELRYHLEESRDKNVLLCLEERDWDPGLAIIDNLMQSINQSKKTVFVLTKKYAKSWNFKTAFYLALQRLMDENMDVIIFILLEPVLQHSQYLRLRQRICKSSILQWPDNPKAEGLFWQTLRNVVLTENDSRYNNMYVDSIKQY
The assay is described as follows: TLR8 inhibition reporter assay (HEK-Blue cells, SEAP reporter, R848 stimulation). As to conditions: HEK-Blue cells overexpressing human TLR8, SEAP reporter, R848 15.9 μM. In a few lines: as §1

As usually defined, the IC50 is the concentration needed to halve the response being measured. A low value points to greater potency in that assay. For `Cc1cc(-c2[nH]c3ccc(C4CN(CCS(C)(=O)=O)CCO4)cc3c2C(C)C)cc(C)n1` (stereo not drawn) [Example 353], the IC50 on human TLR9 was more than 50 µM; on human TLR7, 0.095 µM; on human TLR8, 0.031 µM.

Turning to `Cc1cc(-c2[nH]c3ccc(C4CCCN(C(=O)C5(N)CC5)C4)cc3c2C(C)C)cc(C)n1` (stereo not drawn) [Example 201], the IC50 is 19.3 µM at human TLR9, 0.007 µM against human TLR7 and 0.109 µM at human TLR8.

With `Cc1c(-c2[nH]c3ccc(C4CN(CC(C)C)C4)cc3c2C(C)C)cn2cnnc2c1C` [Example 549], the IC50 on human TLR9 came to 2.19 µM; against human TLR7 it was 0.006 µM; at human TLR8 it was 0.0093 µM.

Turning to `Cc1c(-c2[nH]c3ccc(C4CCC(N)CC4)cc3c2C(C)C)cn2cnnc2c1C` (stereo not drawn) [Example 515], the IC50 at human TLR9 came to 1.23 µM; at human TLR7, 0.006 µM; on human TLR8, 0.059 µM.

For `COc1cc(-c2[nH]c3ccc(C4CNC(C)(C)CO4)cc3c2C(C)C)cn2ncnc12` (stereo not drawn) [Example 369], the IC50 against human TLR9 is 2.62 µM; at human TLR7, 0.0005 µM; on human TLR8, 0.00048 µM.

On to `CNC(=O)CN1CC(c2ccc3[nH]c(-c4cn5ncnc5c(C)c4C)c(C(C)C)c3c2)OCC1(C)C` (stereo not drawn) [Example 388], for which the results for the IC50 against human TLR9, at human TLR7 and on human TLR8 were more than 50 µM, 0.037 µM and 0.041 µM, respectively.

Turning to `COc1ccc(CNC2CCC(c3ccc4[nH]c(-c5cc(C)nc(C)c5)c(C(C)C)c4c3)CC2)cc1` (single isomer, unassigned) [Example 49], the IC50 against human TLR9 came out at 0.391 µM; against human TLR7, 0.007 µM; at human TLR8 it was 0.022 µM.

Regarding `CNC(=O)CN1CCCC(c2ccc3[nH]c(-c4cn5ncnc5c(C)c4C)c(C(C)C)c3c2)C1` (stereo not drawn) [Example 231], the IC50 against human TLR9 came out at 17.3 µM; at human TLR7 it was 0.009 µM; on human TLR8, 0.0046 µM.

`COc1cc(-c2[nH]c3ccc(C4CCC(N(C)CCC(F)(F)F)CC4)cc3c2C(C)C)cn2ncnc12` (stereo not drawn) [Example 82]: the values for the IC50 at human TLR9, against human TLR7 and against human TLR8 were 5.77 µM, 0.007 µM and 0.023 µM, respectively.

In the case of `Cc1cc(-c2[nH]c3ccc(C4CN(C5COC5)C4)cc3c2C(C)C)cn2ncnc12` [Example 271], the IC50 was 29.1 µM at human TLR9, 0.005 µM against human TLR7 and 0.022 µM on human TLR8.

Consider `Cc1cc(-c2[nH]c3ccc(C4CN(CCS(C)(=O)=O)CCO4)cc3c2C(C)C)cn2ncnc12` (stereo not drawn) [Example 343, 2-(3-isopropyl-2-(8-methyl-[1,2,4]triazolo[1,5-a]pyridin-6-yl)-1H-indol-5-yl)-4-(2-(methylsulfonyl)ethyl)morpholine], for which the half-inhibitory concentration (IC50) against human TLR9 was more than 50 µM; on human TLR7, 0.01 µM; on human TLR8, 0.034 µM.

Take `Cc1c(-c2[nH]c3ccc(C4CN(CCS(C)(=O)=O)CCO4)cc3c2C(C)C)cn2ncnc2c1C` (stereo not drawn) [Example 347]: the figures for the IC50 on human TLR9, on human TLR7 and on human TLR8 were more than 50 µM, 0.022 µM and 0.014 µM, respectively.

Consider `COCCN1CCCC(c2ccc3[nH]c(-c4cc(OC)c5ncnn5c4)c(C(C)C)c3c2)C1` (stereo not drawn) [Example 251, 6-(3-isopropyl-5-(1-(2-methoxyethyl)piperidin-3-yl)-1H-indol-2-yl)-8-methoxy-[1,2,4]triazolo[1,5-a]pyridine], for which the IC50 was determined as 5.26 µM against human TLR9, 0.003 µM on human TLR7 and 0.0032 µM against human TLR8.

As for `COc1cc(-c2[nH]c3ccc(C4CCCN(C)C4)cc3c2C(C)C)cn2ncnc12` (stereo not drawn) [Example 241], the IC50 amounted to 1.3 µM against human TLR9, 0.00053 µM against human TLR7 and 0.0019 µM against human TLR8.

In the case of `Cc1c(-c2[nH]c3ccc(C4CC5CN(C(=O)CN(C)C)CC5C4)cc3c2C(C)C)cn2cnnc2c1C` (stereo not drawn) [Example 521], the figures for the IC50 against human TLR9, against human TLR7 and at human TLR8 were 7.02 µM, 0.004 µM and 0.037 µM, respectively.

For the molecule `Cc1cc(-c2[nH]c3ccc(C4CCC(C(=O)N5CCN(C)CC5)CC4)cc3c2C(C)C)cn2ncnc12` (single isomer, unassigned) [Example 157], the values for the IC50 at human TLR9, against human TLR7 and at human TLR8 were 6.25 µM, 0.00038 µM and 0.0025 µM, respectively.

Consider `Cc1c(-c2[nH]c3ccc(C4CCC(NCC(=O)N(C)C)CC4)cc3c2C(C)C)cn2cnnc2c1C` (stereo not drawn) [Example 517], for which the IC50 at human TLR9 was 2.46 µM; against human TLR7 it was 0.005 µM; against human TLR8, 0.042 µM.

For `COc1cc(-c2[nH]c3ccc(C4CCC(N(C)CC(F)F)CC4)cc3c2C(C)C)cn2ncnc12` (stereo not drawn) [Example 74], the results for the IC50 on human TLR9, on human TLR7 and against human TLR8 were 24.5 µM, 0.003 µM and 0.013 µM, respectively.

As for `CCN(C)C1CCC(c2ccc3[nH]c(-c4cc(C)c5ncnn5c4)c(C(C)C)c3c2)CC1` (stereo not drawn) [Example 62], the figures for the IC50 against human TLR9, on human TLR7 and against human TLR8 were 1.83 µM, 0.00098 µM and 0.0063 µM, respectively.

Take `Cc1c(-c2[nH]c3ccc(C4CC5CN(CC#N)CC5C4)cc3c2C(C)C)cn2ncnc2c1C` (stereo not drawn) [Example 512]: the IC50 at human TLR9 came out at 16.3 µM; on human TLR7 it was 0.003 µM; against human TLR8, 0.015 µM.
